{
  "source": "patent US20150315218A1",
  "about": "“SALTS OF PRODRUGS OF PIPERAZINE AND SUBSTITUTED PIPERIDINE ANTIVIRAL AGENTS” (Bristol-Myers Squibb Company, priority 2004, published 2015)",
  "key": {"in vitro": {"assay": "in vitro", "conditions": "dog, serum", "procedure": "(§2) The stability of Iab was studied in fresh blood and serum from rat, dog, monkey and human (n=2). The blood was collected in vacutainers containing K2EDTA (Becton Dickinson, Franklin Lakes, N.J.). The serum was collected in vacutainers containing no anticoagulant. Iab was incubated at a starting concentration of approximately 10 μM for 60-90 min at 37° C. Serial samples were taken at the pre-determined times. Aliquots of blood samples (200 μL) were first mixed with 100 μL of water followed by 400 μL of acetonitrile. The serum samples (50 μL) were added into microtainers containing K2EDTA (Becton Dickinson, Franklin Lakes, N.J.) followed by the addition of 100 μL of acetonitrile. The supernatant was analyzed for both Iab and IVa by LC/MS/MS. The stability of Ibb was studied in fresh blood and serum from rat, dog, monkey and human (n=2). The blood was collected in vacutainers containing K2EDTA (Becton Dickinson, Franklin Lakes, N.J.). The serum was collected in vacutainers containing no anticoagulant. Ibb was incubated at a starting concentration of approximately 15 μM for 90 min at 37° C. Serial samples were taken at the pre-determined times. Aliquots of blood samples (200 μL) were first mixed with 100 μL of water followed by 400 μL of acetonitrile. The serum samples (50 μL) were added into microtainers containing K2EDTA (Becton Dickinson, Franklin Lakes, N.J.) followed by the addition of 100 μL of acetonitrile. […] The stability of Icb was studied in fresh blood and serum from rat, dog, monkey and human (n=2). The blood was collected in vacutainers containing K2EDTA (Becton Dickinson, Franklin Lakes, N.J.). The serum was collected in vacutainers containing no anticoagulant. Icb was incubated at a starting concentration of approximately 10 μM for 90 min at 37° C. Serial samples were taken at the pre-determined times. Aliquots of blood samples (200 μL) were first mixed with 100 μL of water followed by 400 μL of acetonitrile. The serum samples (50 μL) were added into microtainers containing K2EDTA (Becton Dickinson, Franklin Lakes, N.J.) followed by the addition of 100 μL of acetonitrile."}, "[1]": {"assay": "Effect of food on oral absorption of IVa in dogs after Iab or IVa capsules", "type": "in vivo, dog", "method": "To study the effect of food on the oral absorption of IVa after administration of Iab and IVa, these two compounds were administered in capsules as solid to a group of three dogs in a cross-over fashion under overnight fasting and fed conditions. There was a one-week washout period between each study. Iab was administered at 200 mg per dog (ca 20 mg/kg) of IVa equivalent; IVa was administered in a clinical capsule formulation at 200 mg per dog (ca 20 mg/kg). In the studies where the dogs were fed, the following meal was prepared: 2 slices of bacon, 2 eggs, 2 pieces of toast with butter and jelly, 4 oz. hash browns and 8 oz. of whole milk. After homogenization using a laboratory blender, the meal was equally divided into five portions and kept frozen. Before the study, the meals were thawed and each dog was fed one portion."}, "dog hepatocytes": {"tested_on": "dog hepatocytes", "assay": "Hydrolysis of prodrug in hepatocytes (dog)", "type": "in vitro ADME", "conditions": "dog hepatocytes, qualitative", "method": "(§1) The in vitro intrinsic clearance of Ibb in hepatocytes (Clint) was calculated as follows: Clint(μL/min/million cells)=Rate/CE where Rate is the rate of metabolism in hepatocytes (pmol/min/million cells), and CE is the concentration of Ibb in the incubation. The in vitro intrinsic clearance of Icb in hepatocytes (Clint) was calculated as follows: Clint(μL/min/million cells)=Rate/CE where Rate is the rate of metabolism in hepatocytes (pmol/min/million cells), and CE is the concentration of Icb in the incubation."}, "[2]": {"assay": "Aqueous / crystalline solubility", "conditions": "aqueous solution"}, "[3]": {"assay": "Stability (hydrolysis) of prodrug in fresh serum (monkey)", "conditions": "for Iab / IVa Formed: Monkey Serum; for Ibb: Ibb in fresh monkey serum, 37° C., n = 2"}, "[4]": {"assay": "Solution and solid stability", "type": "physicochemical"}, "[5]": {"assay": "Stability of prodrug in Tris-HCl buffer", "conditions": "for stability / conversion of prodrug to parent in Tris-HCl buffer: 60 min (Iab) or 90 min (Ibb, Icb); for Ibb: Ibb in Tris-HCl buffer, 37° C., n = 2", "procedure": "The stability of Iab was also evaluated, as described above, in Tris-HCl buffer (0.1 M, pH 7.5). The stability of Ibb was also evaluated, as described above, in Tris-HCl buffer (0.1 M, pH 7.5). The stability of Icb was also evaluated, as described above, in Tris-HCl buffer (0.1 M, pH 7.5)."}, "monkey hepatocytes": {"tested_on": "monkey hepatocytes", "assay": "Hydrolysis of prodrug in hepatocytes (monkey)", "type": "in vitro ADME", "conditions": "monkey hepatocytes, qualitative", "method": "as §1"}, "[6]": {"assay": "Stability of prodrug in fresh EDTA blood (dog)", "conditions": "for conversion of prodrug to parent in blood containing EDTA: dog blood, 37°C, 60 min (Iab) or 90 min (Ibb, Icb); for Ibb: Ibb in fresh dog EDTA blood, 37° C., n = 2", "procedure": "as §2"}, "[7]": {"assay": "Stability of prodrug in fresh EDTA blood (monkey)", "conditions": "for Iab / IVa Formed: Monkey EDTA blood; for Ibb: Ibb in fresh monkey EDTA blood, 37° C., n = 2", "procedure": "as §2"}},
  "note": "Entries after “also recorded” stand apart in the source; their conditions may differ. Counter-ions that a name gives are not always drawn.",
  "data": [
    {"compound": "COc1cnc(OC)c2c1c(C(=O)C(=O)N1CCN(C(=O)c3ccccc3)CC1)cn2COP(=O)(O)O", "note": "[Iab, {3-[(4-benzoylpiperazin-1-yl)(oxo)acetyl]-4,7-dimethoxy-1H-pyrrolo[2,3-c]pyridin-1-yl}methyl dihydrogen phosphate, L-lysine salt (1:1)]", "values": [
      {"measurement": "half-life at 10 μM", "setting": "in vitro", "result": 3.03, "unit": "h"},
      {"measurement": "AUC of IVa from Iab capsules (fasted dogs) relative to fed dogs given IVa clinical capsule", "setting": "[1]; 200 mg/dog of IVa equivalent", "result": 4, "unit": "times"},
      {"measurement": "Cmax of IVa from Iab capsules (fasted dogs) relative to fed dogs given IVa clinical capsule", "setting": "[1]; 200 mg/dog of IVa equivalent", "result": 6, "unit": "times"},
      {"measurement": "difference in AUC and Cmax of IVa between fasted and fed dogs", "setting": "[1]; dogs receiving Iab capsules", "result": "No significant differences; also recorded: not significantly different"},
      {"measurement": "Cmax of IVa from Iab capsules relative to IVa clinical capsule in fasted dogs", "setting": "[1]; fasted dogs, 200 mg/dog of IVa equivalent", "result": 58, "unit": "times"},
      {"measurement": "hydrolysis in the presence of hepatocytes", "setting": "dog hepatocytes", "result": "hydrolyzed"},
      {"measurement": "concentration of aqueous solutions prepared for in vivo toxicology studies", "setting": "[2]", "result": "> 100", "unit": "mg/mL"},
      {"measurement": "Iab / IVa Formed", "setting": "[3]; 37°C, 0 min", "result": 9.0, "unit": "µM"},
      {"measurement": "Iab / IVa Formed", "setting": "[3]; 15 min", "result": 7.3, "unit": "µM"},
      {"measurement": "Iab / IVa Formed", "setting": "[3]; 30 min", "result": 6.8, "unit": "µM"},
      {"measurement": "Iab / IVa Formed", "setting": "[3]; 45 min", "result": 6.5, "unit": "µM"},
      {"measurement": "Iab / IVa Formed", "setting": "[3]; 60 min", "result": 6.3, "unit": "µM"},
      {"measurement": "Iab / IVa Formed", "setting": "[3]; 90 min", "result": 6.3, "unit": "µM"},
      {"measurement": "solution and solid stabilities", "setting": "[4]", "result": "acceptable solution and solid stabilities"},
      {"measurement": "stability / conversion of prodrug to parent in Tris-HCl buffer", "setting": "[5]; 37°C", "result": "stable"},
      {"measurement": "Iab / IVa Formed", "setting": "[5]; Tris-HCl buffer (0.1 M, pH 7.5), 37°C, 0 min", "result": 10, "unit": "µM"},
      {"measurement": "Iab / IVa Formed", "setting": "[5]; Tris-HCl buffer, 20 min", "result": 10, "unit": "µM"},
      {"measurement": "Iab / IVa Formed", "setting": "[5]; Tris-HCl buffer, 40 min", "result": 7.6, "unit": "µM"},
      {"measurement": "Iab / IVa Formed", "setting": "[5]; Tris-HCl buffer, 60 min", "result": 10, "unit": "µM"},
      {"measurement": "hydrolysis in the presence of hepatocytes", "setting": "monkey hepatocytes", "result": "hydrolyzed"},
      {"measurement": "conversion of prodrug to parent in blood containing EDTA", "setting": "[6]", "result": "approximately 6%"},
      {"measurement": "Iab / IVa Formed", "setting": "[7]; 0 min", "result": 8.5, "unit": "µM"},
      {"measurement": "Iab / IVa Formed", "setting": "[7]; 20 min", "result": 9.2, "unit": "µM"},
      {"measurement": "Iab / IVa Formed", "setting": "[7]; 40 min", "result": 9.2, "unit": "µM"},
      {"measurement": "Iab / IVa Formed", "setting": "[7]; 60 min", "result": 8.7, "unit": "µM"}
    ]},
    {"compound": "O=C(C(=O)N1CCN(C(=O)c2ccccc2)CC1)c1cn(COP(=O)(O)O)c2c(-n3ccnn3)ncc(F)c12", "note": "[Ibb, [3-[(4-benzoylpiperazin-1-yl)(oxo)acetyl]-4-fluoro-7-(1H-1,2,3-triazol-1-yl)-1H-pyrrolo[2,3-c]pyridin-1-yl]methyl dihydrogen phosphate, L-lysine salt (1:1)]", "values": [
      {"measurement": "half-life at 15 μM", "setting": "in vitro", "result": 2.78, "unit": "h"},
      {"measurement": "hydrolysis in the presence of hepatocytes", "setting": "dog hepatocytes", "result": "hydrolyzed"},
      {"measurement": "concentration of aqueous solutions prepared for in vivo toxicology studies", "setting": "[2]", "result": "> 75", "unit": "mg/mL"},
      {"measurement": "Ibb", "setting": "[3]; 0 min", "result": 14, "unit": "µM"},
      {"measurement": "Ibb", "setting": "[3]; 15 min", "result": 6.6, "unit": "µM"},
      {"measurement": "Ibb", "setting": "[3]; 30 min", "result": 3.1, "unit": "µM"},
      {"measurement": "Ibb", "setting": "[3]; 45 min", "result": 1.7, "unit": "µM"},
      {"measurement": "Ibb", "setting": "[3]; 60 min", "result": 0.85, "unit": "µM"},
      {"measurement": "Ibb", "setting": "[3]; 90 min", "result": 0.22, "unit": "µM"},
      {"measurement": "solution and solid stabilities", "setting": "[4]", "result": "acceptable solution and solid stabilities"},
      {"measurement": "stability / conversion of prodrug to parent in Tris-HCl buffer", "setting": "[5]; 37°C", "result": "less than 2%"},
      {"measurement": "Ibb", "setting": "[5]; 0 min", "result": 14, "unit": "µM"},
      {"measurement": "Ibb", "setting": "[5]; 15 min", "result": 12, "unit": "µM"},
      {"measurement": "Ibb", "setting": "[5]; 30 min", "result": 13, "unit": "µM"},
      {"measurement": "Ibb", "setting": "[5]; 45 min", "result": 12, "unit": "µM"},
      {"measurement": "Ibb", "setting": "[5]; 60 min", "result": 13, "unit": "µM"},
      {"measurement": "Ibb", "setting": "[5]; 90 min", "result": 12, "unit": "µM"},
      {"measurement": "hydrolysis in the presence of hepatocytes", "setting": "monkey hepatocytes", "result": "No turnover was observed"},
      {"measurement": "Ibb", "setting": "[6]; 0 min", "result": 13, "unit": "µM"},
      {"measurement": "Ibb", "setting": "[6]; 15 min", "result": 12, "unit": "µM"},
      {"measurement": "Ibb", "setting": "[6]; 30 min", "result": 15, "unit": "µM"},
      {"measurement": "Ibb", "setting": "[6]; 45 min", "result": 16, "unit": "µM"},
      {"measurement": "Ibb", "setting": "[6]; 60 min", "result": 13, "unit": "µM"},
      {"measurement": "Ibb", "setting": "[6]; 90 min", "result": 16, "unit": "µM"},
      {"measurement": "conversion of prodrug to parent in blood containing EDTA", "setting": "[6]", "result": "< 2", "unit": "%"},
      {"measurement": "Ibb", "setting": "[7]; 0 min", "result": 16, "unit": "µM"},
      {"measurement": "Ibb", "setting": "[7]; 15 min", "result": 19, "unit": "µM"},
      {"measurement": "Ibb", "setting": "[7]; 30 min", "result": 18, "unit": "µM"},
      {"measurement": "Ibb", "setting": "[7]; 45 min", "result": 18, "unit": "µM"},
      {"measurement": "Ibb", "setting": "[7]; 60 min", "result": 19, "unit": "µM"},
      {"measurement": "Ibb", "setting": "[7]; 90 min", "result": 17, "unit": "µM"},
      {"measurement": "conversion of prodrug to parent in blood containing EDTA", "setting": "[7]; monkey blood, 37°C, 60 min (Iab) or 90 min (Ibb, Icb)", "result": "< 2", "unit": "%"}
    ]}
  ]
}
